US20070118920A1, “Herbicide-resistant sunflower plants, polynucleotides encoding herbicide-resistant acetohydroxyacid synthase large subunit proteins, and methods of use” (priority 2005, published 2007)

Columns and labels:
[1] = test system: RHA266 (wild-type) sunflower plants; test: Field trial, tolerance to sulfonylurea herbicides (% injury); assay type: in vivo, Helianthus annuus; details: six-leaf stage
Source text: (§1) To evaluate the resistance of MUT9 sunflower plants to sulfonylurea herbicides, RHA266 (wild-type) and MUT9 sunflower plants were planted outdoors in Balcarce, Argentina during the growing season in an RCBD field trial with two replications to evaluate the tolerance of homozygous M5 MUT9 plants to the sulfonylurea herbicides tribenuron methyl (TBM) and thifensulfuron (TFS) at 1× and 2× rates applied at the six-leaf stage. Due to the lack of MUT9 seed, one herbicide was sprayed in each replication. The 1× rates for TBM and TFS are 13.15 g a.i./ha and 4.4 g a.i./ha, respectively.

[2] = test system: homozygous M5 MUT9 sunflower plants; test: as above; assay type: in vivo, Helianthus annuus; details: six-leaf stage
Source text: as §1

[3] = rate 1X (TBM 13.15 g a.i./ha, TFS 4.4 g a.i./ha)
[4] = rate 2X (1X: TBM 13.15 g a.i./ha, TFS 4.4 g a.i./ha)

Compound | % Injury [1, 3] [%] | % Injury [1, 4] [%] | % Injury [2, 3] [%] | % Injury [2, 4] [%]
COc1nc(C)nc(NC(=O)NS(=O)(=O)c2ccsc2C(=O)O)n1 [TFS, thifensulfuron] | 75 | 75 | 75 | 75
COC(=O)c1ccccc1S(=O)(=O)NC(=O)N(C)c1nc(C)nc(OC)n1 [TBM, tribenuron methyl] |  | 45 | 75 | 75
